Like-named read-outs stand apart in the source and are kept apart here.
Columns and labels:
Assay type in all cases: in vivo
[1] = tested on: Polygonum convolvulus (POLCO); test: Pre-emergence herbicidal action against POLCO
Procedure, shortened: (§1)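 Application rates ran to 320 g/ha or lower, with several dosages tested on the same weeds. The compound, as wettable powder or emulsion concentrate, is sprayed pre-emergence onto soil over sown seeds; greenhouse growth follows, and effect is rated visually after roughly 3 weeks.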

Avena fatua (AVEFA) [2] = test: Pre-emergence herbicidal action against AVEFA; settings: 320 g/ha, visual scoring after about 3 weeks vs untreated controls
Procedure, shortened: as §1

[3] = tested on: Pharbitis purpurea (PHBPU); test: Post-emergence herbicidal action against PHBPU
Procedure, shortened: (§2)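 Doses of 320 g/ha or lower, suffixes a, b and c marking different dosages, were applied post-emergence at the one-leaf stage in 600 l/ha water with 0.5% additive. Damage was assessed visually after about 3 weeks in the greenhouse.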

[4] = tested on: Matricaria inodora (MATIN); test: Post-emergence herbicidal action against MATIN
Procedure, shortened: as §2

[5] = tested on: Abutilon theophrasti (ABUTH); test: Pre-emergence herbicidal action against ABUTH; settings: Dosage column 320 g/ha (title prints 3200 g/ha); scored visually after about 3 weeks; 100% = plants have died
Procedure, shortened: as §1

[6] = tested on: Pharbitis purpurea (PHBPU); test: Pre-emergence herbicidal action against PHBPU
Procedure, shortened: as §1

[7] = tested on: Alopecurus myosuroides (ALOMY); test: Post-emergence herbicidal action against ALOMY; settings: visual rating about 3 weeks after treatment vs untreated controls (100% = plants have died, 0% = like control plants)
Procedure, shortened: as §2

Zea mays (ZEAMX) [8] = settings: pre-emergence, 80 g/ha, crop plant compatibility, in comparison to untreated controls
Procedure, shortened: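 Crop injury rated visually in percent against untreated plants roughly 3 weeks after treatment (0% no effect, 100% plants dead). Compounds, as WP or EC with 0.5% additive in 600 l/ha water, were applied to the covering soil right after sowing; greenhouse growth. Suffixes a, b, c denote different dosages.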

[9] = tested on: Verconica persica (VERPE); test: Pre-emergence herbicidal action against VERPE
Procedure, shortened: as §1

[10] = tested on: Polygonum convolvulus (POLCO); test: Post-emergence herbicidal action against POLCO
Procedure, shortened: as §2

[11] = tested on: Abutilon theophrasti (ABUTH); test: Post-emergence herbicidal action against ABUTH; settings: visual rating about 3 weeks after treatment vs untreated controls (100% = plants have died, 0% = like control plants)
Procedure, shortened: as §2

Lolium rigidum (LOLRI) [12] = test: Post-emergence herbicidal action against LOLRI
Procedure, shortened: as §2

Avena fatua (AVEFA) [13] = test: Post-emergence herbicidal action against AVEFA; settings: visual rating about 3 weeks after treatment
Procedure, shortened: as §2

[14] = tested on: Alopecurus myosuroides (ALOMY); test: Pre-emergence herbicidal action against ALOMY; settings: scored visually after about 3 weeks, 100% = plants have died
Procedure, shortened: as §1

[15] = tested on: Amaranthus retroflexus (AMARE); test: Pre-emergence herbicidal action against AMARE; settings: visual scoring after about 3 weeks vs untreated controls
Procedure, shortened: as §1

[16] = tested on: Amaranthus retroflexus (AMARE); test: Post-emergence herbicidal action against AMARE
Procedure, shortened: as §2

Setaria viridis (SETVI) [17] = test: Pre-emergence herbicidal action against SETVI
Procedure, shortened: as §1

Oryza sativa (ORYSA) = settings: crop plant compatibility
Procedure, shortened: (§3)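 Test crops were treated 2 to 3 weeks after sowing, once they reached one leaf, by spraying compound in water with 0.5% additive at 600 l/ha. Visual scoring compared them with untreated controls roughly 3 weeks on, and appendices a, b and c denote different doses.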

Lolium rigidum (LOLRI) [18] = test: Pre-emergence herbicidal action against LOLRI; settings: dosage 320 g/ha
Procedure, shortened: as §1

[19] = tested on: Echinochloa crus-galli (ECHCG); test: Pre-emergence herbicidal action against ECHCG
Procedure, shortened: as §1

Setaria viridis (SETVI) [20] = test: Post-emergence herbicidal action against SETVI
Procedure, shortened: as §2

[21] = tested on: Verconica persica (VERPE); test: Post-emergence herbicidal action against VERPE
Procedure, shortened: as §2

[22] = tested on: Matricaria inodora (MATIN); test: Pre-emergence herbicidal action against MATIN
Procedure, shortened: as §1

[23] = tested on: Echinochloa crus-galli (ECHCG); test: Post-emergence herbicidal action against ECHCG
Procedure, shortened: as §2

Viola tricolor (VIOTR) [24] = test: Pre-emergence herbicidal action against VIOTR
Procedure, shortened: as §1

Viola tricolor (VIOTR) [25] = test: Post-emergence herbicidal action against VIOTR; settings: 320 g/ha
Procedure, shortened: as §2

Zea mays (ZEAMX) [26] = tested on: Zea mays (ZEAMX)
Procedure, shortened: as §3

[27] = tested on: Triticum aestivum (TRZAS); settings: crop plant compatibility, 20 g/ha, effect vs untreated controls
Procedure, shortened: as §3

[28] = 80 g/ha, visual rating about 3 weeks after treatment vs untreated controls (100% = plants have died, 0% = like control plants)
[29] = 320 g/ha, visual rating about 3 weeks after treatment
[30] = 80 g/ha, effect in comparison to untreated controls

Row | Post-emergence action against ORYSA in % (Oryza sativa (ORYSA); [30]) | SMILES | Pre-emergence action against POLCO in % ([1]; dosage 320 g/ha) | Pre-emergence action against AVEFA in % (Avena fatua (AVEFA) [2]) | Post-emergence action against PHBPU in % ([3]; dosage 80 g/ha) | Pre-emergence action against ABUTH [5] | Pre-emergence action against PHBPU in % ([6]; dosage 320 g/ha) | Post-emergence action against ALOMY in % ([7]; 80 g/ha) | Pre-emergence action against VERPE in % ([9]; dosage 320 g/ha) | Post-emergence action against POLCO in % ([10]; dosage 80 g/ha) | Post-emergence action against ABUTH in % ([11]; 80 g/ha) | Pre-emergence action against ALOMY ([14]; 80 g/ha) | Pre-emergence action against ALOMY ([14]; 320 g/ha) | Pre-emergence action against AMARE in % ([15]; 80 g/ha) | Pre-emergence action against AMARE in % ([15]; 320 g/ha) | Post-emergence action against AMARE in % [16, 28] | Pre-emergence action against SETVI in % (Setaria viridis (SETVI) [17]; dosage 320 g/ha) | Pre-emergence action against LOLRI in % (Lolium rigidum (LOLRI) [18]) | Pre-emergence action against ECHCG in % ([19]; dosage 80 g/ha) | Pre-emergence action against ECHCG in % ([19]; dosage 320 g/ha) | Post-emergence action against VERPE in % ([21]; dosage 80 g/ha) | other results
1 | 0% | COC(=O)CCOC(=O)COc1nn(-c2ccccn2)c(-c2ccc(F)nc2)c1Cl [Example I-88] | 90% | 90% | 80% | 80% | 80% | 80% | 90% | 80% | 80% | 80% | 100% | 80% | 100% | 80% | 100% | 100% | 90% | 100% | 80% | Pre-emergence action against POLCO in % ([1]; dosage 80 g/ha): 80%; Post-emergence action against PHBPU in % ([3]; dosage 320 g/ha): 80%; Post-emergence action against MATIN in % ([4]; dosage 320 g/ha): 80%; Post-emergence action against ALOMY in % ([7]; 320 g/ha): 90%; Pre-emergence action against ZEAMX in % (Zea mays (ZEAMX) [8]): 20%; Pre-emergence action against VERPE in % ([9]; dosage 80 g/ha): 80%; Post-emergence action against POLCO in % ([10]; dosage 320 g/ha): 80%; Post-emergence action against ABUTH in % ([11]; 320 g/ha): 80%; Post-emergence action against LOLRI in % (Lolium rigidum (LOLRI) [12]; dosage 320 g/ha): 80%; Post-emergence action against AVEFA in % (Avena fatua (AVEFA) [13]; 320 g/ha): 90%; Post-emergence action against AMARE in % [16, 29]: 80%; Post-emergence action against SETVI in % (Setaria viridis (SETVI) [20]; dosage 320 g/ha): 80%; Post-emergence action against VERPE in % ([21]; 320 g/ha, VERPE): 80%; Pre-emergence action against MATIN in % ([22]; dosage 320 g/ha): 90%; Post-emergence action against ECHCG in % ([23]; dosage 80 g/ha): 80%; Post-emergence action against ECHCG in % ([23]; dosage 320 g/ha): 90%; Pre-emergence action against VIOTR in % (Viola tricolor (VIOTR) [24]; 320 g/ha, Viola tricolor): 90%
2 | 20% | CCOC(=O)COc1nn(-c2nc(F)ccc2F)c(-c2ccc(F)nc2)c1Cl [Example I-315] | 90% | 90% | 80% | 80% | 90% | 80% | 100% | 80% | 80% | 100% | 100% | 90% | 90% | 80% | 100% | 100% | 90% | 100% | 80% | Pre-emergence action against POLCO in % ([1]; dosage 80 g/ha): 80%; Post-emergence action against PHBPU in % ([3]; dosage 320 g/ha): 80%; Pre-emergence action against PHBPU in % ([6]; dosage 80 g/ha): 90%; Post-emergence action against ALOMY in % ([7]; 320 g/ha): 90%; Pre-emergence action against ZEAMX in % (Zea mays (ZEAMX) [8]): 10%; Post-emergence action against POLCO in % ([10]; dosage 320 g/ha): 80%; Post-emergence action against ABUTH in % ([11]; 320 g/ha): 80%; Post-emergence action against LOLRI in % (Lolium rigidum (LOLRI) [12]; dosage 320 g/ha): 90%; Post-emergence action against AVEFA in % (Avena fatua (AVEFA) [13]; 320 g/ha): 80%; Post-emergence action against VIOTR in % (Viola tricolor (VIOTR) [25]): 80%; Post-emergence action against AMARE in % [16, 29]: 80%; Post-emergence action against ZEAMX in % (Zea mays (ZEAMX) [26]; crop plant compatibility, 80 g/ha, effect vs untreated controls): 20%; Post-emergence action against SETVI in % (Setaria viridis (SETVI) [20]; dosage 320 g/ha): 80%; Post-emergence action against VERPE in % ([21]; 320 g/ha, VERPE): 90%; Pre-emergence action against MATIN in % ([22]; dosage 80 g/ha): 80%; Pre-emergence action against MATIN in % ([22]; dosage 320 g/ha): 90%; Post-emergence action against ECHCG in % ([23]; dosage 80 g/ha): 90%; Post-emergence action against ECHCG in % ([23]; dosage 320 g/ha): 100%; Pre-emergence action against VIOTR in % (Viola tricolor (VIOTR) [24]; 320 g/ha, Viola tricolor): 100%; Pre-emergence action against VIOTR in % (Viola tricolor (VIOTR) [24]; dosage 80 g/ha): 90%
3 | 10% | COC(=O)[C@H](C)COC(=O)COc1nn(-c2ccccn2)c(-c2cncc(F)c2)c1Cl [Example I-74] | 100% | 80% | 90% | 90% | 90% | 100% | 100% | 90% | 80% | 80% | 100% | 90% | 100% | 80% | 100% | 100% | 80% | 100% | 80% | Post-emergence action against MATIN in % ([4]; dosage 80 g/ha): 90%; Pre-emergence action against PHBPU in % ([6]; dosage 80 g/ha): 90%; Post-emergence action against LOLRI in % (Lolium rigidum (LOLRI) [12]; dosage 80 g/ha): 90%; Post-emergence action against AVEFA in % (Avena fatua (AVEFA) [13]; 80 g/ha): 90%; Pre-emergence action against SETVI in % (Setaria viridis (SETVI) [17]; dosage 80 g/ha): 90%; Post-emergence action against ZEAMX in % (crop plant compatibility) (Zea mays (ZEAMX) [26]; 20 g/ha, ZEAMX, effect in comparison to untreated controls): 10%; Post-emergence action against TRZAS in % [27]: 0%; Post-emergence action against ORYSA in % (Oryza sativa (ORYSA); 20 g/ha, effect vs untreated controls): 0%; Post-emergence action against SETVI in % (Setaria viridis (SETVI) [20]; dosage 80 g/ha): 80%; Pre-emergence action against MATIN in % ([22]; dosage 80 g/ha): 90%; Pre-emergence action against MATIN in % ([22]; dosage 320 g/ha): 90%; Post-emergence action against ECHCG in % ([23]; dosage 80 g/ha): 90%; Pre-emergence action against VIOTR in % (Viola tricolor (VIOTR) [24]; 320 g/ha, Viola tricolor): 100%; Pre-emergence action against VIOTR in % (Viola tricolor (VIOTR) [24]; dosage 80 g/ha): 90%
